Results reported in patent publication US9079893B2, “Ureido-pyrazole derivatives for use in the treatment of respiratory syncitial virus (RSV) infection” (Respivert, Ltd., priority 2010, dated 2015).
Read-outs that look alike come from different tables or passages of the source.

What was measured:
[1] = test system: RSV F-protein expression in Hep2 cells; assay: RSV F-protein expression in Hep2 cells infected with RSV; type: cell-based, respiratory syncitial virus (RSV A2); settings: for Hep2 E-max (%): Hep2 cells, test conc μg/mL: 0.0016-0.2 (Examples 1, 59), 0.04-0.2 (fluticasone propionate), 10 (ribavirin); for IC50: human respiratory syncytial virus, HEp-2, 96 h
Procedure: (§1) Normal human bronchial epithelial cells (NHBEC) grown in 96 well plates, were infected at a multiplicity of infection (MOI) of 0.001 with RSV A2 (Strain A2, HPA, Salisbury, UK;) in LHC8 Media: RPMI-1640 (50:50) containing 15 mM magnesium chloride, and incubated for 1 hr at 37° C. to promote adsorption. The cells were then washed with PBS to remove non-infected virus particle and incubated for 4 days in fresh media. As appropriate, cells were pre-incubated with the test compound or DMSO for 2 hr, and then added again after wash with PBS as shown above.
(§2) The cells were fixed with 4% formaldehyde in PBS solution for 20 min, washed with washing buffer: PBS including 0.5% BSA and 0.05% Tween-20) (WB) and incubated with blocking solution (5% condensed milk in PBS) for 1 hr. Cells were then washed with WB and incubated for 1 hr at RT with anti-RSV (2F7) F-fusion protein antibody (mouse monoclonal) (lot 798760, Cat. No. ab43812, Abcam). After washing, cells were incubated with an HRP-conjugated secondary antibody (lot 00053170, Cat. No. P0447, Dako) and then TMB substrate (substrate reagent pack (lot 269472, Cat. No. DY999, R&D Systems, Inc.) was added.
(§3) The reaction was stopped by the addition of 2NH2SO4 (50 μL) and the resultant signal was determined colorimetrically (OD: 450 nm with a reference wavelength of 655 nm) in a microplate reader (Varioskan® Flash, ThermoFisher Scientific). Cells were then washed and a 2.5% crystal violet solution (lot 8656, Cat. No. PL7000, Pro-Lab Diagnostics) was applied for 30 mins. After washing with WB, 100 μL of 1% SDS was added to each well, and plates were shaken lightly on the shaker for 1 hr prior to reading the absorbance at 595 nm. The measured OD450-655 readings were corrected to the cell number by dividing the OD450-655 by the OD595 readings. The percentage inhibition for each well was calculated and the IC50 value was calculated from the concentration-response curve generated by the serial dilutions of compound.
(§4) HBECs obtained from patients with cystic fibrosis (CF-BEC) and Hep2 cells (human larynx epidermoid carcinoma cell line) were also used.

[2] = test system: RSV F-protein expression in CF-BEC; assay: RSV F-protein expression in CF-BEC (HBECs from patients with cystic fibrosis) infected with RSV; type: cell-based, respiratory syncitial virus (RSV A2); settings: for CF-BEC E-max (%): test conc μg/mL: 0.0016-0.2 (Examples 1, 59), 0.04-0.2 (fluticasone propionate), 10 (ribavirin); for IC50: human respiratory syncytial virus, 96 h, read-out: CF-BEC IC50 (nM)
Procedure: as §1, §2, §3, §4

[3] = test system: RSV Memphis 37 induced IL-8 release; assay: RSV Memphis 37 induced IL-8 release in air-liquid interface cultured primary nasal epithelial cells; type: cell-based; settings: primary 3D cultured nasal epithelial cells, RSV Memphis 37, FIG. 1
Procedure: Primary nasal epithelial cells, cultured using an air-liquid interface, were purchased from Epithelix Sarl (Geneva, Switzerland). Fresh, warmed media (200 μL) containing either the test compound at the selected concentration or vehicle (DMSO; final concentration of 0.5%) was transferred to the apical chamber, and fresh, warmed media (700 μL) containing either the test compound at the selected concentration or vehicle (DMSO; final concentration of 0.5%) were transferred to the bottom chamber. After incubation for 2 hr, the media in upper well was removed carefully. The following day, fresh, warmed media (200 μL) containing either the test compound at the selected concentration or vehicle (DMSO; final concentration of 0.5%) was transferred to the apical chamber again, and after incubation for 2 hr, the media was removed. On the third day, cells were treated again for 2 hr, and the media was removed.
The cells in the apical well were infected with 50 μL of RSV Memphis 37 virus (Meridian) 2 (producing an MOI of approximately 0.1 at the estimated cell number of 1×10^6/well) and incubated for 1 hr. The apical media was then removed by aspiration and the wells were washed twice with warmed PBS. The plate was incubated at 37° C. […]
IL-8 concentrations were determined using a Duoset ELISA development kit (R&D Systems, Minneapolis, Minn.; FIG. 1)

human RSV A2 = assay: RSV virus load in mouse lung; type: in vivo, Balb/c mice; settings: for Lung virus load (TCID50/g lung tissue ×10^3), day 3: 3 days post RSV infection; for Lung virus load (TCID50/g lung tissue ×10^3), day 5: 5 days post RSV infection; for Lung virus load (TCID50/g lung tissue ×10^3), day 7: 7 days post RSV infection; for inhibition of lung viral load: Day 5 post-infection (peak of virus titre), versus vehicle-dosed animals; for augmentation of viral load at Day 9: Day 9, when virus had been eliminated in vehicle-treated mice
Procedure: Wild type, specific pathogen-free male Balb/c mice aged 8 weeks and weighing approximately 25 g were obtained from the Animal Resource Centre Pty. Ltd., Australia. On day zero, appropriate animal groups were anaesthetised with the inhalation anaesthetic methoxyfluorane and nasally inoculated with either virus diluent (low protein serum free VPSSM from Invitrogen) or 10^6 TCID50 units of human RSV A2 in a volume of 50 μL. […] Eleven to thirteen animals from each group were sacrificed on days 3, 5, 7 and 9 to enable lung viral load to be determined using a plaque assay (Table 5).

RSV Memphis 37 = assay: RSV titre assay (CPE in Hep2) of air-liquid interface cultured primary nasal epithelial cells; type: cell-based, respiratory syncitial virus (RSV Memphis 37); settings: primary 3D cultured nasal epithelial cells, RSV Memphis 37, log [TCID50], FIG. 2
Procedure: Primary nasal epithelial cells, cultured using an air-liquid interface, were purchased from Epithelix Sarl (Geneva, Switzerland). Fresh, warmed media (200 μL) containing either the test compound at the selected concentration or vehicle (DMSO; final concentration of 0.5%) was transferred to the apical chamber, and fresh, warmed media (700 μL) containing either the test compound at the selected concentration or vehicle (DMSO; final concentration of 0.5%) were transferred to the bottom chamber. After incubation for 2 hr, the media in upper well was removed carefully. The following day, fresh, warmed media (200 μL) containing either the test compound at the selected concentration or vehicle (DMSO; final concentration of 0.5%) was transferred to the apical chamber again, and after incubation for 2 hr, the media was removed. On the third day, cells were treated again for 2 hr, and the media was removed. […]
The virus titre was estimated by CPE assay in Hep2 cells as follows: Supernatant (20 μL) was collected and 10-fold serial dilutions were prepared in 5%-FBS DMEM. […] The resultant cytopathic effects (CPE) were assessed by visual inspection 3 days after infection. The amount of virus required to infect 50% of Hep2 cells was calculated for each treatment and is reported as log [TCID50] […]

[4] = test system: RSV F-protein expression in NHBEC; assay: RSV F-protein expression in NHBEC infected with RSV A2 (in vitro RSV virus load); type: cell-based, respiratory syncitial virus (RSV A2); settings: for NHBEC E-max (%): test conc μg/mL: 0.0016-0.2 (Examples 1, 59), 0.04-0.2 (fluticasone propionate), 10 (ribavirin); for IC50 / inhibition at 0.04 µg/mL: human respiratory syncytial virus, 96 h; for inhibition at 0.04 µg/mL: read-out: % inhibition (at 0.04 μg/mL)
Procedure: as §1, §2, §3

[5] = intra-tracheal 20 μL of 0.1 mg/mL, mean ± SEM

## COCC(=O)Nc1cc(COc2ccc(NC(=O)Nc3cc(C(C)(C)C)nn3-c3ccc(C)cc3)c3ccccc23)ccn1 [Example 1, N-(4-((4-(3-(3-tert-Butyl-1-p-tolyl-1H-pyrazol-5-yl)ureido)naphthalen-1-yloxy)methyl)pyridin-2-yl)-2-methoxy acetamide]
[1]
  Hep2 E-max (%): 24%
[2]
  CF-BEC E-max (%): 84%
  IC50: 69 nM
[3]
  inhibition on RSV-induced IL-8 production: strong inhibition
Human RSV A2; [5]
  Lung virus load (TCID50/g lung tissue ×10^3), day 3: 66 ± 18 TCID50/g lung tissue ×10^3
  Lung virus load (TCID50/g lung tissue ×10^3), day 5: 1,545 ± 918^ TCID50/g lung tissue ×10^3
  Lung virus load (TCID50/g lung tissue ×10^3), day 7: 7.1 ± 5.2 TCID50/g lung tissue ×10^3
Human RSV A2
  inhibition of lung viral load: 67%
  augmentation of viral load at Day 9: did not augment viral load
RSV Memphis 37
  inhibition on RSV viral load: strong inhibition
[4]
  NHBEC E-max (%): 51%
  IC50: 40.8 nM
  inhibition at 0.04 µg/mL: 46.8%
[4]; read-out: NHBEC IC50 (nM)
  IC50: 41 nM

## Cc1ccc(-n2nc(C(C)(C)C)cc2NC(=O)Nc2ccc(OCCc3ccnc(NC(N)=O)c3)c3ccccc23)cc1 [Example 40, 4-(2-(4-(3-(3-tert-Butyl-1-p-tolyl-1H-pyrazol-5-yl)ureido)naphthalen-1-yloxy)ethyl)-3-(pyridin-2-yl)urea]
[4]
  IC50: 103 nM
  inhibition at 0.04 µg/mL: 24.9%

## COCC(=O)Nc1cc(Oc2ccc(NC(=O)Nc3cc(C(C)(C)C)nn3-c3ccc(C)cc3)c3ccccc23)ccn1 [Example 59, N-(4-(4-(3-(3-tert-Butyl-1-p-tolyl-1H-pyrazol-5-yl)ureido)naphthalen-1-yloxy)pyridin-2-yl)-2-methoxyacetamide]
[1]
  Hep2 E-max (%): 58%
[1]; read-out: Hep2 IC50 (nM)
  IC50: 289 nM
[2]
  CF-BEC E-max (%): 87%
  IC50: 58 nM
Human RSV A2; [5]
  Lung virus load (TCID50/g lung tissue ×10^3), day 3: 81 ±29 TCID50/g lung tissue ×10^3
  Lung virus load (TCID50/g lung tissue ×10^3), day 5: 448 ± 268 TCID50/g lung tissue ×10^3
  Lung virus load (TCID50/g lung tissue ×10^3), day 7: 2.4 ± 0.8 TCID50/g lung tissue ×10^3
Human RSV A2; 9 days post RSV infection, intra-tracheal 20 μL of 0.1 mg/mL, mean ± SEM
  Lung virus load (TCID50/g lung tissue ×10^3), day 9: 0.3 ± 0.1 TCID50/g lung tissue ×10^3
Human RSV A2
  inhibition of lung viral load: 90%
  augmentation of viral load at Day 9: did not augment viral load
[4]
  NHBEC E-max (%): 78%
  inhibition at 0.04 µg/mL: 67.5%

## Cc1ccc(-n2nc(C(C)(C)C)cc2NC(=O)Nc2ccc(Oc3ccnc(NC(=O)N4CCCC4)c3)c3ccccc23)cc1 [Example 65, N-(4-(4-(3-(3-tert-Butyl-1-p-tolyl-1H-pyrazol-5-yl)ureido)naphthalen-1-yloxy)pyridin-2-yl)pyrrolidine-1-carboxamide]
[4]
  inhibition at 0.04 µg/mL: 56.5%

## CNC(=O)Nc1cc(Oc2ccc(NC(=O)Nc3cc(C(C)(C)C)nn3-c3ccc(C)cc3)c3ccccc23)ccn1 [Example 88]
[4]
  inhibition at 0.04 µg/mL: 71.7%

## CCC(=O)O[C@]1(C(=O)SCF)[C@H](C)C[C@H]2[C@@H]3C[C@H](F)C4=CC(=O)C=C[C@]4(C)[C@@]3(F)[C@@H](O)C[C@@]21C [Fluticasone propionate, reference compound]
[2]
  CF-BEC E-max (%): 10%
[4]
  NHBEC E-max (%): −38%

## NC(=O)c1ncn([C@@H]2O[C@H](CO)[C@@H](O)[C@H]2O)n1 [Ribavirin, reference compound]
[1]
  Hep2 E-max (%): 93%
[1]; read-out: Hep2 IC50 (footnote a: μM)
  IC50: 9000 nM
[2]
  CF-BEC E-max (%): 53%
[4]
  NHBEC E-max (%): 78%
